These are literature values, as cited in paper PMC4461526 (Bioorganic & medicinal chemistry, 2015).

Series [1] addresses T1, Human ABCC2 (Homo sapiens, UniProt Q92887). As to conditions: ref 30 (Kidron et al.); for IC50: read-out: IC50 (inhibitors of EG).
In series [2] the target is T1, Human ABCC2. The conditions noted are these: ref 30 (Kidron et al.).

T1 sequence (Q92887 whole entry): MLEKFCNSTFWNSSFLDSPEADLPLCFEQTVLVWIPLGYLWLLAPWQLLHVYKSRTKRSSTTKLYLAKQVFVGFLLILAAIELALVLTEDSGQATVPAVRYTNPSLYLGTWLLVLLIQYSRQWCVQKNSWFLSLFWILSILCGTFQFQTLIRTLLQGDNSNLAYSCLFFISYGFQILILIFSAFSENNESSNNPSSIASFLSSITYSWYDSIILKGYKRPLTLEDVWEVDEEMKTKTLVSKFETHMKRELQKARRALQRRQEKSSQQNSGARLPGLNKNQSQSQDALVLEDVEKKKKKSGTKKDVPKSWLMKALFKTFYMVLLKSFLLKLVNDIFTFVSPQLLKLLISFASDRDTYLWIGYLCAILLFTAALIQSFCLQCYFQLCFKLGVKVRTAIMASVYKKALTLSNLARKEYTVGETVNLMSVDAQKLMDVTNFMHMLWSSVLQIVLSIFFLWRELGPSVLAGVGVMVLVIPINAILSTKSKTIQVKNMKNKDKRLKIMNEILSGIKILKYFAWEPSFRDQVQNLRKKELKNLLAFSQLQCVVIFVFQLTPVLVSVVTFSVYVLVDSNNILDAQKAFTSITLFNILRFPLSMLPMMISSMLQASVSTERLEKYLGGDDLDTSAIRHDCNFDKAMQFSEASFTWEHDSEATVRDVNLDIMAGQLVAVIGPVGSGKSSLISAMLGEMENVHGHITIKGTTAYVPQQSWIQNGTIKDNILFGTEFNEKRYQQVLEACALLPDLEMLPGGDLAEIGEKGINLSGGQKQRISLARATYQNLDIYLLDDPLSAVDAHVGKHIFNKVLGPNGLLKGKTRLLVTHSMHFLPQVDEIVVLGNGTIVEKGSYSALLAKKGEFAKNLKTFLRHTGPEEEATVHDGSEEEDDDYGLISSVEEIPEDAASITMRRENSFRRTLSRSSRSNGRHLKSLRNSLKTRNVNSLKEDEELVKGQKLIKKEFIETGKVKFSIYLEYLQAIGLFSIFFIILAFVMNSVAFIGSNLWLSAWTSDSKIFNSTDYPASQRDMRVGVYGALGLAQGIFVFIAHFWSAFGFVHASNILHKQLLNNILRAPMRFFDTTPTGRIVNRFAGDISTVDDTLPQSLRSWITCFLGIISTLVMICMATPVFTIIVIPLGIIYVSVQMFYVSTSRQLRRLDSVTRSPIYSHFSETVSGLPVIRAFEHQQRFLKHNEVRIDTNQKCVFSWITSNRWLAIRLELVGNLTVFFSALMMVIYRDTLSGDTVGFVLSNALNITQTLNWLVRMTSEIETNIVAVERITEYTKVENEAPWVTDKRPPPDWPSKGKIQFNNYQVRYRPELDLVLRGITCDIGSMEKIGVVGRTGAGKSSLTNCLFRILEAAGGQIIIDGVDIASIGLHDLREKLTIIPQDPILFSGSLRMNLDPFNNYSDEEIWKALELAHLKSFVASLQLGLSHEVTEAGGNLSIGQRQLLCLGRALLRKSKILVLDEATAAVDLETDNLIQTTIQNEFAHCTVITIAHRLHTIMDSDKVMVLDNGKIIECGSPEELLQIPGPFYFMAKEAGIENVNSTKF

One may read the IC50 as the concentration that gives 50% inhibition. As for `CSc1ccc2c(c1)N(CCC1CCCCN1C)c1ccccc1S2` (stereo not shown) [thioridazine], the IC50 on Human ABCC2 [1] was 40 to 60 µM. In addition, the “effect on CDCF transport” value at Human ABCC2 [2] is “stimulating”.
For `O=C(O)Cc1ccccc1Nc1c(Cl)cccc1Cl` [diclofenac], the “effect on EG transport” value on Human ABCC2 [1] is “stimulators”.
With `C[C@]12CC[C@@H]3c4ccc(OS(=O)(=O)O)cc4CC[C@H]3[C@@H]1CCC2=O` [estrone-3-sulfate], the “effect on EG transport” value on Human ABCC2 [1] is “stimulators”.
Turning to `CCCC1O[C@@H]2C[C@H]3[C@@H]4CCC5=CC(=O)C=C[C@]5(C)[C@H]4[C@@H](O)C[C@]3(C)[C@]2(C(=O)CO)O1` (stereo partly shown) [budes-onide], at Human ABCC2 [1], the half-maximal inhibitory concentration (IC50) is 40 to 60 µM. Further, on Human ABCC2 [2], the “effect on CDCF transport” value was “stimulating”.
With `COc1ccc2c(c1)c(CC(=O)O)c(C)n2C(=O)c1ccc(Cl)cc1` [indomethacin], the “effect on EG transport” value on Human ABCC2 [1] is on record as “stimulators”.
